≈ marks a conversion by molar mass, not a printed value.
Legend:
Enterococcus faecium [1] = experiment: Antibacterial activity against Linezolid/Ampicillin/ciprofloxacin/Vancomycin-resistant Enterococcus faecium assessed as inhibition of visible growth incubated for 20 to 24 hrs by microbroth serial dilution assay; type: functional; conditions: time 20-24 hrs, read-out: MIC100
Streptococcus pneumoniae = experiment: Antibacterial activity against Streptococcus pneumoniae assessed as inhibition of visible growth incubated for 20 to 24 hrs by microbroth serial dilution assay; type: functional; conditions: time 20-24 hrs, read-out: MIC100
Enterococcus faecalis = experiment: Antibacterial activity against Enterococcus faecalis assessed as inhibition of visible growth incubated for 20 to 24 hrs by microbroth serial dilution assay; type: functional; conditions: time 20-24 hrs, read-out: MIC100
Enterococcus faecium [2] = experiment: Antibacterial activity against Vancomycin-resistant Enterococcus faecium assessed as inhibition of visible growth incubated for 20 to 24 hrs by microbroth serial dilution assay; type: functional; conditions: time 20-24 hrs, read-out: MIC100
Staphylococcus aureus = experiment: Antibacterial activity against multi drug-resistant Staphylococcus aureus USA300 FPR3757 assessed as inhibition of visible growth incubated for 20 to 24 hrs by microbroth serial dilution assay; type: functional; conditions: time 20-24 hrs, read-out: MIC100
[3] = Inhibition of P-gp efflux in MDCKII-MDR1 cells using calcein-AM as substrate assessed as intracellular calcein fluorescence preincubated for 15 mins followed by substrate addition and measured by fluorescence based assay; type: cell-based; conditions: Canis lupus familiaris
[4] = Solubility of the compound in Dulbecco's PBS at 20 degree C measured after 24 hrs
in vitro [5] = conditions: human, liver microsomes
in vitro [6] = conditions: mouse, liver microsomes
in vitro [7] = conditions: mouse, liver microsomes; remark: listed apart in the source
MDCK-MDR1 = experiment: Cytotoxicity against MDCKII-MDR1 cells assessed as cell viability at 100 uM measured by MTT assay; type: toxicity, cell-based, Canis lupus familiaris; conditions: dog, mdck-mdr1, 100 µM
in vitro [8] = conditions: human, liver microsomes; remark: listed apart in the source

## C=C[C@]1(C)C[C@@H](OC(=O)Cn2cc(-c3ccc([C@H](C)n4cnc5c(N6CCNCC6)ncnc54)cc3)nn2)[C@]2(C)[C@H](C)CC[C@]3(CCC(=O)[C@H]32)[C@@H](C)[C@@H]1O
Enterococcus faecium [1]
  MIC: 0.5 µg/mL (≈ 0.679 µM)
Streptococcus pneumoniae
  MIC: 0.5 µg/mL (≈ 0.679 µM)
Enterococcus faecalis
  MIC: 0.5 µg/mL (≈ 0.679 µM)
Enterococcus faecium [2]
  MIC: 0.5 µg/mL (≈ 0.679 µM)
Staphylococcus aureus
  MIC: 0.5 µg/mL (≈ 0.679 µM)

## C=C[C@]1(C)C[C@@H](OC(=O)Cn2cc(-c3ccc([C@@H](C)n4cnc5c(N6CCNCC6)ncnc54)cc3)nn2)[C@]2(C)[C@H](C)CC[C@]3(CCC(=O)[C@H]32)[C@@H](C)[C@@H]1O
Enterococcus faecium [1]
  MIC: 0.25 µg/mL (≈ 0.34 µM)
Streptococcus pneumoniae
  MIC: 0.25 µg/mL (≈ 0.34 µM)
Enterococcus faecalis
  MIC: 0.5 µg/mL (≈ 0.679 µM)
[3]
  IC50: 7 µM
Enterococcus faecium [2]
  MIC: 0.25 µg/mL (≈ 0.34 µM)
Staphylococcus aureus
  MIC: 0.25 µg/mL (≈ 0.34 µM)
[4]
  solubility at 24 h: 10 µM (≈ 7.36 µg/mL)

## C=C[C@]1(C)C[C@@H](OC(=O)Cn2cc(-c3ccc(Cn4cnc5c(N)ncnc54)nc3)nn2)[C@]2(C)[C@H](C)CC[C@]3(CCC(=O)[C@H]32)[C@@H](C)[C@@H]1O
Enterococcus faecium [1]
  MIC: 0.12 µg/mL (≈ 0.184 µM)
Streptococcus pneumoniae
  MIC: 0.25 µg/mL (≈ 0.382 µM)
Enterococcus faecalis
  MIC: 0.25 µg/mL (≈ 0.382 µM)
[3]
  IC50: 98 µM
In vitro [5]
  CLint scaled at 0.5 h, 1 µM: 194 L/h/kg
In vitro [6]
  CLint scaled at 0.5 h, 1 µM: 571 L/h/kg
Enterococcus faecium [2]
  MIC: 0.12 µg/mL (≈ 0.184 µM)
In vitro [7]
  half-life at 0.5 h, 1 µM: 34.8 s
MDCK-MDR1
  Activity: Non-Toxic
Staphylococcus aureus
  MIC: 0.03 µg/mL (≈ 0.0459 µM)
[4]
  solubility at 24 h: 6.7 µM (≈ 4.38 µg/mL)
In vitro [8]
  half-life at 0.5 h, 1 µM: 114 s

## C=C[C@]1(C)C[C@@H](OC(=O)Cn2cc(-c3ccc(Cn4cnc5c(N6CCNCC6)ncnc54)cc3)nn2)[C@]2(C)[C@H](C)CC[C@]3(CCC(=O)[C@H]32)[C@@H](C)[C@@H]1O
Enterococcus faecium [1]
  MIC: 0.12 µg/mL (≈ 0.166 µM)
Streptococcus pneumoniae
  MIC: 0.25 µg/mL (≈ 0.346 µM)
Enterococcus faecalis
  MIC: 0.25 µg/mL (≈ 0.346 µM)
[3]
  IC50: 10 µM
Enterococcus faecium [2]
  MIC: 0.06 µg/mL (≈ 0.0831 µM)
Staphylococcus aureus
  MIC: 0.25 µg/mL (≈ 0.346 µM)
[4]
  solubility at 24 h: 31 µM (≈ 22.4 µg/mL)

## C=C[C@]1(C)C[C@@H](OC(=O)Cn2cc(-c3ccc(Cn4cnc5c(N)ncnc54)c(O)c3)nn2)[C@]2(C)[C@H](C)CC[C@]3(CCC(=O)[C@H]32)[C@@H](C)[C@@H]1O
Enterococcus faecium [1]
  MIC: 0.25 µg/mL (≈ 0.374 µM)
Streptococcus pneumoniae
  MIC: 0.25 µg/mL (≈ 0.374 µM)
Enterococcus faecalis
  MIC: 0.25 µg/mL (≈ 0.374 µM)
[3]
  IC50: > 100 µM
In vitro [5]
  CLint scaled at 0.5 h, 1 µM: 317 L/h/kg
In vitro [6]
  CLint scaled at 0.5 h, 1 µM: 586 L/h/kg
Enterococcus faecium [2]
  MIC: 0.25 µg/mL (≈ 0.374 µM)
In vitro [7]
  half-life at 0.5 h, 1 µM: 33.6 s
MDCK-MDR1
  Activity: Non-Toxic
Staphylococcus aureus
  MIC: 0.03 µg/mL (≈ 0.0449 µM)
[4]
  solubility at 24 h: 2.5 µM (≈ 1.67 µg/mL)
In vitro [8]
  half-life at 0.5 h, 1 µM: 72 s

## C=C[C@]1(C)C[C@@H](OC(=O)Cn2cc(-c3ccc(Cn4cnc5c(N)ncnc54)c(OC)c3)nn2)[C@]2(C)[C@H](C)CC[C@]3(CCC(=O)[C@H]32)[C@@H](C)[C@@H]1O
Enterococcus faecium [1]
  MIC: 0.12 µg/mL (≈ 0.176 µM)
Streptococcus pneumoniae
  MIC: 0.25 µg/mL (≈ 0.366 µM)
Enterococcus faecalis
  MIC: 0.25 µg/mL (≈ 0.366 µM)
[3]
  IC50: 46 µM
Enterococcus faecium [2]
  MIC: 0.12 µg/mL (≈ 0.176 µM)
Staphylococcus aureus
  MIC: 0.06 µg/mL (≈ 0.0879 µM)
[4]
  solubility at 24 h: 2.2 µM (≈ 1.5 µg/mL)

— ChEMBL document CHEMBL5518206, “Hit-to-Lead Identification and Validation of a Triaromatic Pleuromutilin Antibiotic Candidate” (J Med Chem, 2024)
